Laboratory results as given in patent publication US20240417405A1, “Substituted Spiro Derivatives” (Janssen Pharmaceutica NV, priority 2021, published 2024).

These compounds were tested against T1, menin/MLL (terbium chelate-labeled menin, FITC-MBM1 peptide) (Homo sapiens, UniProt O00255, T541A) (assay: Menin/MLL homogenous time-resolved fluorescence (HTRF) assay). Settings: 30 min incubation.
T1 construct: Menin (a.a 1-610-6xhis tag)
T1 sequence (O00255 with tags, fused parts or gaps T541A): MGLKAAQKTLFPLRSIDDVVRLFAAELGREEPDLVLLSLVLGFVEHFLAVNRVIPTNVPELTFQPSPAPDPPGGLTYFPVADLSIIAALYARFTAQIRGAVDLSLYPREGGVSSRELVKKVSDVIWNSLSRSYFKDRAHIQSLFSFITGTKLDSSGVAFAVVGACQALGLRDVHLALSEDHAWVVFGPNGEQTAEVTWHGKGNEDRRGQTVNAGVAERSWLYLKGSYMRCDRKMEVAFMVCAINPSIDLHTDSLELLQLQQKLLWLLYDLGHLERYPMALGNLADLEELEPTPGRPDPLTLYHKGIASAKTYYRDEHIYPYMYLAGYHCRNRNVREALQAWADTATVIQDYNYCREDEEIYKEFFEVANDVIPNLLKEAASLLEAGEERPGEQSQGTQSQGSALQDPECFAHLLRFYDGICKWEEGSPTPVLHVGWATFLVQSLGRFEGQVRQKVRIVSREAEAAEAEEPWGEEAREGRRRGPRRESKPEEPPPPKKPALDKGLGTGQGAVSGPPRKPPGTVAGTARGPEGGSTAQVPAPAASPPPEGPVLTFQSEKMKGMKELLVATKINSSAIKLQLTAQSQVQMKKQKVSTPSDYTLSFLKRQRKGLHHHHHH
Type: binding
Summary of the method: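 Percent inhibition, calculated from the 520/490 nm HTRF ratio against high and low controls, was fitted for IC50 with a 0.1 nM detection limit. Reactions held 200 pM Tb-menin and 75 nM FITC-MBM1 in pH 7.5 Tris buffer with 0.5% DMSO.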

For `CC(=O)N1CCN([C@H]2C[C@@H](C(C(C)C)N3CC4(CCN(c5ncnnc5Oc5ccc(F)cc5-c5cncc(C#N)c5C5CC5)C4)C3)C2)CC1` (stereo partly drawn) [Compound 144], which IC50 is on record?
Its IC50 is 0.8 nM.

`CC(C)C(C1CC2(CCN2CC2COC2)C1)N1CC2(CCN(c3ncnnc3Oc3ccc(F)cc3-c3cncnc3C3CC3)C2)C1` (stereo not drawn) [Compound 156] was tested. Which IC50 did it give?
Its IC50 is 0.8 nM.

With `CC(C)[C@H]([C@H]1C[C@@H](N2CCC(C)(C(=O)N(C)C)C2)C1)N1CC2(CCN(c3ncnnc3Oc3ccc(F)cc3-c3cncnc3C3CC3)C2)C1` (stereo partly drawn) [Compound 161] as the compound, how does the IC50 read?
Its IC50 is 0.1 nM.

For `CC(C)[C@H]([C@H]1C[C@H](N2CCC(C)(C(=O)N(C)C)C2)C1)N1CC2(CCN(c3ncnnc3Oc3ccc(F)cc3-c3cncnc3C3CC3)C2)C1` (stereo partly drawn) [Compound 162], which IC50 is on record?
Its IC50 is 0.1 nM.

For `CC(C)[C@H]([C@H]1C[C@@H](N2C[C@H]3COC[C@H]3C2)C1)N1CC2(CCN(c3ncnnc3Oc3ccc(F)cc3-c3cnc(C#N)nc3C3CC3)C2)C1` [Compound 167], which IC50 is on record?
The IC50 was 0.1 nM.

With `CC(C)[C@@H]([C@H]1C[C@@H](N2C[C@H]3COC[C@H]3C2)C1)N1CC2(CCN(c3ncnnc3Oc3ccc(F)cc3-c3cnc(C#N)nc3C3CC3)C2)C1` [Compound 168] as the compound, how does the IC50 read?
The IC50 was 0.6 nM.

`CC(=O)N[C@H]1C[C@@H](C(C(C)C)N2CC3(CCN(c4ncnnc4Oc4ccc(F)cc4-c4nccnc4C4CC4)C3)C2)C1` (stereo partly drawn) [Compound 176] was tested. Which IC50 did it give?
Its IC50 is 0.5 nM.

With `CC(=O)N[C@H]1C[C@@H](C(C(C)C)N2CC3(CCN(c4ncnnc4Oc4ccc(F)cc4-c4ncncc4C4CC4)C3)C2)C1` (stereo partly drawn) [Compound 179] as the compound, how does the IC50 read?
Its IC50 is 0.4 nM.

For `CC(C)C([C@H]1C[C@@H](NC(=O)C2CC2)C1)N1CC2(CCN(c3ncnnc3Oc3ccc(F)cc3-c3cnncc3C3CC3)C2)C1` (stereo partly drawn) [Compound 184], which IC50 is on record?
The IC50 was 0.2 nM.

How did the IC50 turn out when `CC(=O)N[C@H]1C[C@@H](C(C(C)C)N2CC3(CCN(c4ncnnc4Oc4ccc(F)cc4-c4cnncc4C4CC4)C3)C2)C1` (stereo partly drawn) [Compound 187] was run?
Its IC50 is 0.8 nM.

`CC(=O)N[C@H]1C[C@@H](C(C(C)C)N2CC3(CCN(c4ncnnc4Oc4ccc(F)cc4-c4cccc(=O)n4C4CC4)C3)C2)C1` (stereo partly drawn) [Compound 188] was tested. Which IC50 did it give?
The IC50 was 0.2 nM.

How did the IC50 turn out when `CC(C)C([C@H]1C[C@@H](NC(=O)C2CC2)C1)N1CC2(CCN(c3ncnnc3Oc3ccc(F)cc3-c3cccc(=O)n3C3CC3)C2)C1` (stereo partly drawn) [Compound 189] was run?
The IC50 was 0.4 nM.

With `CC(C)C([C@H]1C[C@@H](Nc2cncnc2)C1)N1CC2(CCN(c3ncnnc3Oc3ccc(F)cc3-c3cncnc3C3CC3)C2)C1` (stereo partly drawn) [Compound 193] as the compound, how does the IC50 read?
The IC50 was 0.2 nM.

What follows are compounds tested on KO-52 cells (assay: Proliferation assay, spheroid-like growth, KO-52 (MLL wildtype control cell line)). Settings: Homo sapiens, 192 h, KO-52 control cells, 8 days, confluence as measure of spheroid size; read-out: spheroid assay_OneTime KO-52 IC50.
Type: cell-based, human
Summary of the method: (§1)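 Seed cells at linear-growth densities in low-attachment wells; add test compound at several concentrations, normalized to 0.3% DMSO; incubate 8 days at 37 °C; image spheroids and measure confluence; calculate absolute IC50 against DMSO and reference-compound controls.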

Which IC50 does the source give for `CC(=O)N1CCN([C@H]2C[C@@H](C(C(C)C)N3CC4(CCN(c5ncnnc5Oc5ccc(F)cc5-c5cncc(C#N)c5C5CC5)C4)C3)C2)CC1` (stereo partly drawn) [Compound 144] here?
Its IC50 is 12300 nM.

Which IC50 does the source give for `CC(C)C(C1CC2(CCN2CC2COC2)C1)N1CC2(CCN(c3ncnnc3Oc3ccc(F)cc3-c3cncnc3C3CC3)C2)C1` (stereo not drawn) [Compound 156] here?
The IC50 was 7960 nM.

How did the IC50 turn out when `CC(C)[C@H]([C@H]1C[C@@H](N2CCC(C)(C(=O)N(C)C)C2)C1)N1CC2(CCN(c3ncnnc3Oc3ccc(F)cc3-c3cncnc3C3CC3)C2)C1` (stereo partly drawn) [Compound 161] was run?
The IC50 was 3360 nM.

Which IC50 does the source give for `CC(C)[C@H]([C@H]1C[C@H](N2CCC(C)(C(=O)N(C)C)C2)C1)N1CC2(CCN(c3ncnnc3Oc3ccc(F)cc3-c3cncnc3C3CC3)C2)C1` (stereo partly drawn) [Compound 162] here?
The IC50 was 6400 nM.

How did the IC50 turn out when `CC(C)[C@H]([C@H]1C[C@@H](N2C[C@H]3COC[C@H]3C2)C1)N1CC2(CCN(c3ncnnc3Oc3ccc(F)cc3-c3cnc(C#N)nc3C3CC3)C2)C1` [Compound 167] was run?
The IC50 was 4110 nM.

For `CC(C)[C@@H]([C@H]1C[C@@H](N2C[C@H]3COC[C@H]3C2)C1)N1CC2(CCN(c3ncnnc3Oc3ccc(F)cc3-c3cnc(C#N)nc3C3CC3)C2)C1` [Compound 168], which IC50 is on record?
Its IC50 is 2590 nM.

`CC(=O)N[C@H]1C[C@@H](C(C(C)C)N2CC3(CCN(c4ncnnc4Oc4ccc(F)cc4-c4nccnc4C4CC4)C3)C2)C1` (stereo partly drawn) [Compound 176] was tested. Which IC50 did it give?
The IC50 was 10400 nM.

With `CC(=O)N[C@H]1C[C@@H](C(C(C)C)N2CC3(CCN(c4ncnnc4Oc4ccc(F)cc4-c4ncncc4C4CC4)C3)C2)C1` (stereo partly drawn) [Compound 179] as the compound, how does the IC50 read?
Its IC50 is 12600 nM.

`CC(C)C([C@H]1C[C@@H](NC(=O)C2CC2)C1)N1CC2(CCN(c3ncnnc3Oc3ccc(F)cc3-c3cnncc3C3CC3)C2)C1` (stereo partly drawn) [Compound 184] was tested. Which IC50 did it give?
The IC50 was 600 nM.

`CC(=O)N[C@H]1C[C@@H](C(C(C)C)N2CC3(CCN(c4ncnnc4Oc4ccc(F)cc4-c4cnncc4C4CC4)C3)C2)C1` (stereo partly drawn) [Compound 187] was tested. Which IC50 did it give?
The IC50 was > 15000 nM.

How did the IC50 turn out when `CC(=O)N[C@H]1C[C@@H](C(C(C)C)N2CC3(CCN(c4ncnnc4Oc4ccc(F)cc4-c4cccc(=O)n4C4CC4)C3)C2)C1` (stereo partly drawn) [Compound 188] was run?
Its IC50 is > 15000 nM.

With `CC(C)C([C@H]1C[C@@H](NC(=O)C2CC2)C1)N1CC2(CCN(c3ncnnc3Oc3ccc(F)cc3-c3cccc(=O)n3C3CC3)C2)C1` (stereo partly drawn) [Compound 189] as the compound, how does the IC50 read?
Its IC50 is > 15000 nM.

With `CC(C)C([C@H]1C[C@@H](Nc2cncnc2)C1)N1CC2(CCN(c3ncnnc3Oc3ccc(F)cc3-c3cncnc3C3CC3)C2)C1` (stereo partly drawn) [Compound 193] as the compound, how does the IC50 read?
Its IC50 is > 15000 nM.

These compounds were tested on MOLM14 cells (assay: Proliferation assay, spheroid-like growth, MOLM14 (MLL-AF9 rearranged)). Settings: Homo sapiens, MOLM-14, 192 h, 8 days, confluence as measure of spheroid size, read-out: spheroid assay_OneTime MOLM14 IC50.
Type: cell-based, human
Summary of the method: as §1

`CC(=O)N1CCN([C@H]2C[C@@H](C(C(C)C)N3CC4(CCN(c5ncnnc5Oc5ccc(F)cc5-c5cncc(C#N)c5C5CC5)C4)C3)C2)CC1` (stereo partly drawn) [Compound 144] was tested. Which IC50 did it give?
Its IC50 is 200 nM.

How did the IC50 turn out when `CC(C)C(C1CC2(CCN2CC2COC2)C1)N1CC2(CCN(c3ncnnc3Oc3ccc(F)cc3-c3cncnc3C3CC3)C2)C1` (stereo not drawn) [Compound 156] was run?
Its IC50 is 100 nM.

How did the IC50 turn out when `CC(C)[C@H]([C@H]1C[C@@H](N2CCC(C)(C(=O)N(C)C)C2)C1)N1CC2(CCN(c3ncnnc3Oc3ccc(F)cc3-c3cncnc3C3CC3)C2)C1` (stereo partly drawn) [Compound 161] was run?
Its IC50 is 4 nM.

`CC(C)[C@H]([C@H]1C[C@H](N2CCC(C)(C(=O)N(C)C)C2)C1)N1CC2(CCN(c3ncnnc3Oc3ccc(F)cc3-c3cncnc3C3CC3)C2)C1` (stereo partly drawn) [Compound 162] was tested. Which IC50 did it give?
Its IC50 is 110 nM.

`CC(C)[C@H]([C@H]1C[C@@H](N2C[C@H]3COC[C@H]3C2)C1)N1CC2(CCN(c3ncnnc3Oc3ccc(F)cc3-c3cnc(C#N)nc3C3CC3)C2)C1` [Compound 167] was tested. Which IC50 did it give?
Its IC50 is < 2 nM.

How did the IC50 turn out when `CC(C)[C@@H]([C@H]1C[C@@H](N2C[C@H]3COC[C@H]3C2)C1)N1CC2(CCN(c3ncnnc3Oc3ccc(F)cc3-c3cnc(C#N)nc3C3CC3)C2)C1` [Compound 168] was run?
Its IC50 is 53 nM.

How did the IC50 turn out when `CC(=O)N[C@H]1C[C@@H](C(C(C)C)N2CC3(CCN(c4ncnnc4Oc4ccc(F)cc4-c4nccnc4C4CC4)C3)C2)C1` (stereo partly drawn) [Compound 176] was run?
The IC50 was 80 nM.

Which IC50 does the source give for `CC(=O)N[C@H]1C[C@@H](C(C(C)C)N2CC3(CCN(c4ncnnc4Oc4ccc(F)cc4-c4ncncc4C4CC4)C3)C2)C1` (stereo partly drawn) [Compound 179] here?
Its IC50 is 73 nM.

With `CC(C)C([C@H]1C[C@@H](NC(=O)C2CC2)C1)N1CC2(CCN(c3ncnnc3Oc3ccc(F)cc3-c3cnncc3C3CC3)C2)C1` (stereo partly drawn) [Compound 184] as the compound, how does the IC50 read?
The IC50 was 10 nM.

For `CC(=O)N[C@H]1C[C@@H](C(C(C)C)N2CC3(CCN(c4ncnnc4Oc4ccc(F)cc4-c4cnncc4C4CC4)C3)C2)C1` (stereo partly drawn) [Compound 187], which IC50 is on record?
The IC50 was 65 nM.

With `CC(=O)N[C@H]1C[C@@H](C(C(C)C)N2CC3(CCN(c4ncnnc4Oc4ccc(F)cc4-c4cccc(=O)n4C4CC4)C3)C2)C1` (stereo partly drawn) [Compound 188] as the compound, how does the IC50 read?
The IC50 was 520 nM.

How did the IC50 turn out when `CC(C)C([C@H]1C[C@@H](NC(=O)C2CC2)C1)N1CC2(CCN(c3ncnnc3Oc3ccc(F)cc3-c3cccc(=O)n3C3CC3)C2)C1` (stereo partly drawn) [Compound 189] was run?
The IC50 was 140 nM.

For `CC(C)C([C@H]1C[C@@H](Nc2cncnc2)C1)N1CC2(CCN(c3ncnnc3Oc3ccc(F)cc3-c3cncnc3C3CC3)C2)C1` (stereo partly drawn) [Compound 193], which IC50 is on record?
The IC50 was 50 nM.
